For one test, the system named is cell line HCT116. The following applies: molecules 4f/4j and 4g/4k of Alami et al. J. Med. Chem. 2019; cited from earlier work.
Test [1] relates to SKBr3 (breast tumour, Her2 overexpression). In words: Antiproliferative activity (IC50), CellTiter Glo, SKBr3. Type of test: cell-based, human. The text has this:
(§1) The IC50 (as per accepted terminology) activities of the compounds according to the invention 4-((3-amino-4-methoxyphenyl)(methyl)amino) quinoline-2-carbonitrile (ICQN-1); 5-(5-((2-cyanoquinolin-4-yl)(methyl)amino)-2-methoxyphenyl)-N-hydroxypent-4-ynamide (ICQN-2); and (E)-3-(5-((2-cyanoquinolin-4-yl)(methyl)amino)-2-methoxyphenyl)-N-hydroxyacrylamide (ICQN-3) were compared with compounds of the prior art and with a commercial and clinical reference compound, in particular MMAE (monomethylauristatin E). The IC50 activities were measured on various different cancer cell lines HCT116 (colorectal tumour), A549 (non-small cell lung cancer), NCI-N87 (gastric tumour), Mia-Paca-2 (pancreatic tumour), K562R (chronic myeloid leukemia), SKOV3 (ovarian tumour), SKBr3 (breast tumour, Her2 overexpression), MCF7 (breast tumour) and MDA-MB231 (breast tumour).
(§2) The cancer cell lines were obtained from the American Culture Collection (ATCC, Rockville, MD) or from the German collection of microorganisms and cell cultures of the Leibniz Institute (DSMZ, Braunschweig-Germany) or from the European collection of cell cultures (ECACC, England). The cancer cell lines were cultured according to the supplier's instructions.
(§3) The HCT-116 human colorectal carcinoma, SK-BR3 breast carcinoma, and SK-OV-3 ovarian carcinoma cells were cultured in Gibco McCoy's 5A medium supplemented with 10% foetal calf serum (FCS) and 1% glutamine.
(§4) The cells were counted using a Vi-cell XR (Beckman Coulter) and the cell viability was assessed by using 0.25% trypan blue dye exclusion assay. The cells were tested for the presence of mycoplasmas prior to the experiments with the Mycoplasma PCR detection kit (Applied Biological Materials Inc., Canada) according to the manufacturer's instructions, and only mycoplasma-free cells were used for the study. The cell lines were maintained at 37° C. in a humidified atmosphere containing 5% CO2.
(§5) After 24 hours of culturing, the cells were treated with the tested compounds at 10 different final concentrations. Each concentration was obtained from serial dilutions in culture medium starting from the stock solution. The control cells were treated with the carrier. The experiments were carried out in triplicate.
(§6) The measurements were performed after 72 hours of treatment using the CellTiter Glo assay (Promega) which makes it possible to measure through bioluminescence (quantification of adenosine triphosphate—ATP) the number of living cells, by using a PolarStar Omega microplate reader (BMG-Labtech).
(§7) The dose-response curves were plotted with the Graph Prism software application and the IC50 values were calculated using the Graph Prism software based on polynomial curves (four or five parameter logistic equations).
On the technique in general: In ATP-based viability assays light output follows the ATP content of the culture.

The subject of test [2] is HCT116 (colorectal tumour). The test is described as follows: Antiproliferative activity (IC50), CellTiter Glo, HCT116. Type of test: cell-based, human.
Source text: as §1, §2, §3, §4, §5, §6, §7

Test [3] concerns Mia-Paca-2 (pancreatic tumour). The test is described as follows: Antiproliferative activity (IC50), CellTiter Glo, Mia-Paca-2. Format: cell-based.
Source text: as §1, §2
(§8) The A549 lung carcinoma cells, K562R myeloid leukemia cells, and the NCI-N87 gastric carcinoma cells were cultured in Gibco Roswell Park Memorial Institute (RPMI) 1640 medium supplemented with 10% foetal calf serum (FCS) and 1% glutamine. The Mia-Paca2 carcinoma cells were cultured in Gibco Dulbecco's Modified Eagle Medium (DMEM) supplemented with 10% foetal calf serum (FCS) and 1% glutamine.
as §4, §5, §6, §7

The subject of another test is MDA-MB-231 cell line. As to conditions: published by Chen et al.; read-out: IC50 over the MDA-MB-231 cell line; cited from earlier work.
The test system of test [4] is A549 (non-small cell lung cancer). In words: Antiproliferative activity (IC50), CellTiter Glo, A549. Format: cell-based.
Source text: as §1, §2, §8, §4, §5, §6, §7

For test [5], the system named is K562R (chronic myeloid leukemia). The test is described as follows: Antiproliferative activity (IC50), CellTiter Glo, K562R. Type of test: cell-based.
Source text: as §1, §2, §8, §4, §5, §6, §7
The K562R (chronic myeloid leukemia) cells have an MDR profile that allows them to be resistant to several chemotherapeutic compounds including the reference compound MMAE.

The next test has as its system SKOV3 (ovarian tumour). The test is described as follows: Antiproliferative activity (IC50), CellTiter Glo, SKOV3. Type of test: cell-based, human.
Source text: as §1, §2, §3, §4, §5, §6, §7

The test system of another test is NCI-N87 (gastric tumour). In words: Antiproliferative activity (IC50), CellTiter Glo, NCI-N87. Type of test: cell-based.
Source text: as §1, §2, §8, §4, §5, §6, §7

Test [6] has as its system MDA-MB231 (breast tumour). The test is described as follows: Antiproliferative activity (IC50), CellTiter Glo, MDA-MB231. Format: cell-based. As to conditions: free, unconjugated; 72 hours of treatment; read-out: MDA-MB231 CI50.
Source text: as §1, §2
(§9) The breast adenocarcinoma cells MDA-MB231 and MCF7 were cultured in Gibco RPMI 1640 culture medium supplemented with 10% foetal calf serum (FCS) and 1% glutamine.
as §4, §5, §6, §7

Another test has as its system MCF7 (breast tumour). The test is described as follows: Antiproliferative activity (IC50), CellTiter Glo, MCF7. Type of test: cell-based. The following applies: free, unconjugated; 72 hours of treatment; read-out: MCF7 CI50.
Source text: as §1, §2, §9, §4, §5, §6, §7

Among the data in patent US12172965B2, “Drug conjugate comprising quinoline derivatives” (UNIVERSITE PARIS-SACLAY, priority 2018, dated 2024) are IC50 values, retold here.

Where two headings read alike, the source gives them in different places. Non-standard residues stand in square brackets, D forms with d. Residues, ends and D or L forms follow the SMILES beside them. *: point of attachment. Dolaproine = CO[C@@H]([C@@H]1CCCN1)[C@@H](C)C(=O)O; Dil = CC[C@H](C)[C@H](NC)[C@@H](CC(=O)O)OC; X1 = C[C@@H](N*)[C@@H](O)c1ccccc1; NMeV = CN[C@H](C(=O)O)C(C)C

Take `C=C(c1ccc2c(c1)c1ccccc1n2C)c1cc(C#N)nc2ccccc12`: the IC50 with cell line HCT116 is 12 nM.

For the molecule `COc1ccc(N(C)c2cc(C)nc3ccccc23)cc1N` [Compound 13b, reference compound], the IC50 was 2.17 nM in test [1] (Homo sapiens, SK-BR-3, comparative data 13b / ICQN-1, unit inferred, read-out: SKBr3 (antiproliferative activity, Table 3)); 2.15 nM in test [2] (Homo sapiens, HCT-116, comparative data 13b / ICQN-1, unit inferred, read-out: HCT116 (antiproliferative activity, Table 3)); 0.92 nM in test [3] (Homo sapiens, MIA PaCa-2, comparative data 13b / ICQN-1, unit inferred, read-out: Mia-Paca2 (antiproliferative activity, Table 3)); 3.2 nM with MDA-MB-231 cell line; 0.68 nM in test [4] (Homo sapiens, A549, comparative data 13b / ICQN-1, unit inferred, read-out: A549 (antiproliferative activity, Table 3)); 3.59 nM in test [5] (Homo sapiens, K-562R, comparative data 13b / ICQN-1, unit inferred, read-out: K562R (antiproliferative activity, Table 3)). In addition, the IC50 with SKOV3 (ovarian tumour) (Homo sapiens, SK-OV-3, comparative data 13b / ICQN-1, unit inferred, read-out: SKOV3 (antiproliferative activity, Table 3)) was found to be 1.28 nM; in the test with NCI-N87 (gastric tumour) (Homo sapiens, NCI-N87, comparative data 13b / ICQN-1, unit inferred, read-out: NCI-N87 (antiproliferative activity, Table 3)), 4.36 nM.

For `CC[C@H](C)[C@@H]([C@@H](CC(=O)N1CCC[C@H]1[C@H](OC)[C@@H](C)C(=O)N[C@H](C)[C@@H](O)c1ccccc1)OC)N(C)C(=O)[C@@H](NC(=O)[C@@H](NC)C(C)C)C(C)C` [MMAE, monomethylauristatin E, reference compound] (H-[NMeV]V[Dil][Dolaproine]-X1), the IC50 came out at 0.06 nM in [1] (free, unconjugated, 72 hours of treatment, read-out: SKBr3 IC50); 1.52 nM in [2] (free, unconjugated, 72 hours of treatment, read-out: HCT116 IC50); 3.02 nM in [3] (free, unconjugated, 72 hours of treatment, read-out: Mia-Paca-2 IC50); 4.12 nM in test [4] (free, unconjugated, 72 hours of treatment, read-out: A549 IC50); 1.25 nM in test [6]; 19.7 nM in test [5] (free, unconjugated, 72 hours of treatment, read-out: K562R IC50). The IC50 in [5] (resistant cancer cells, MDR profile, read-out: K562R (PgP+) IC50) amounted to 35 nM; with SKOV3 (ovarian tumour) (free, unconjugated, 72 hours of treatment, read-out: SKOV3 IC50), 0.08 nM; in the test with MCF7 (breast tumour), 0.58 nM; in the test on NCI-N87 (gastric tumour) (free, unconjugated, 72 hours of treatment, read-out: NIC-N87 IC50), 6.58 nM.

For the molecule `C=C(c1ccc2c(c1)c1ccccc1n2C)c1cc(C)nc2ccccc12`, the IC50 in the test on cell line HCT116 was 2 nM.
